Experimental data published in patent US12297192B2, “Crystal form of pyrimidine sulfonamide compound and preparation method therefor” (WUXI BIOCITY BIOPHARMACEUTICS CO., LTD., priority 2019, dated 2025).

Tests used:
[1] = Solid stability test for Crystal Form A (high temperature, high humidity, strong light, accelerated conditions); format: physicochemical
Source text: See Table 3 below for chromatographic conditions for the HPLC method of solid stability testing:
According to the Guideline for Stability Testing of APIs and Formulations (Chinese Pharmacopoeia 2015 Edition, Volume IV, General Principles 9001).
After being placed under high temperature and high humidity conditions, samples were placed in a desiccator for examination. On the 5th, 10th and 30th days, samples were taken for testing, and the results were compared with the initial test results on day 0. Samples placed under strong light condition were covered with a transparent lid and sealed with a sealing film and samples were taken on the 5th and 10th for testing and the results were compared to the initial test results on day 0. […] Each aliquot was placed in a double-layer LDPE bag. Each layer of LDPE bag was sealed by tying, respectively. Then the LDPE bag was placed in an aluminum foil bag and heat sealed and placed at 25° C./60% relative humidity. Samples were taken at the 3th month, 6th month, 9th month and 12th month, and placed under 40° C./75% relative humidity. Samples were taken at the 1st month, 2^ed month, 3th month and 6th month, respectively. The test results were compared with the initial test results on day 0.

human ETB receptors = target: T1, human ETB receptors (Homo sapiens, UniProt P24530); assay: In vitro antagonistic effect on human ETB receptors (Ca2+ fluorescence, transfected CHO cells); format: cell-based; details: 0.3 nM endothelin-1
T1 construct: host or cells: CHO cells
T1 sequence (P24530 27-442): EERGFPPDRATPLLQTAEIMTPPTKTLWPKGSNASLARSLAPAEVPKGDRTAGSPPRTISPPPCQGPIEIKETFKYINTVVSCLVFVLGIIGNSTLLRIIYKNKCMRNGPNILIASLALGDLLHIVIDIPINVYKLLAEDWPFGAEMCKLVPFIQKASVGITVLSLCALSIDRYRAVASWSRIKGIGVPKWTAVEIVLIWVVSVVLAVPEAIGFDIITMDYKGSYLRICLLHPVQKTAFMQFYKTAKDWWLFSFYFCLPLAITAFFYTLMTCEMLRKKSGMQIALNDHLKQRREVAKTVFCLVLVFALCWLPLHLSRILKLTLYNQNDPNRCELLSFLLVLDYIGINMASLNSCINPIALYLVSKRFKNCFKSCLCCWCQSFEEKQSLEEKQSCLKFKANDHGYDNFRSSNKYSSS
Description: The antagonist activities of the compounds on human ETB receptors expressed in transfected CHO cells were assessed by measuring the effects of the compounds on changes in cytoplasmic Ca^2+ ion signaling induced by an agonist of human ETB receptor using a fluorescence assay. The functional activity of the ETB receptor antagonistic effect was tested at Eurofins-Cerep SA according to current standard operating procedures.
• 1. Cells were suspended in DMEM buffer (Invitrogen) and then distributed at a density of 3×10^4 cells/well in 384 plates (100 μL/well). • 2. HBSS buffer (Invitrogen) supplemented with 20 mM Hepes (Invitrogen) (pH 7.4) was mixed with the fluorescent probe (Fluo4 Direct, Invitrogen) and added to each well. Equilibrated with the cells for 60 minutes at 37° C. and then for 15 minutes at 22° C. • 3. The assay plate was placed in a microplate reader (CellLux, PerkinElmer). DMSO solution of the test compound and the positive control or HBSS buffer in appropriate concentration was added. […] Then the change in fluorescence intensity was measured. The fluorescence intensity is in proportion to the Ca^2+ ion concentration of the free cytosol. • 4. […] The standard positive control was BQ-788 and several concentrations were tested in each experiment and the data was analyzed using Prism to produce a concentration-response curve to calculate the IC50 values of the compounds. […]

[2] = 25° C./60% relative humidity, sealed, 3 months
[3] = 25° C./60% relative humidity, sealed, 6 months
[4] = 25° C./60% relative humidity, sealed, 9 months
[5] = 25° C./60% relative humidity, sealed, 12 months
[6] = 40° C., 75% relative humidity, sealed, 1 month
[7] = 40° C., 75% relative humidity, sealed, 2 months
[8] = 40° C., 75% relative humidity, sealed, 3 months
[9] = 40° C., 75% relative humidity, sealed, 6 months
[10] = High humidity (room temperature/92.5% relative humidity, open), 5 days
[11] = High humidity (room temperature/92.5% relative humidity, open), 10 days
[12] = High humidity (room temperature/92.5% relative humidity, open), 30 days
[13] = High temperature (60° C., open), 5 days
[14] = High temperature (60° C., open), 10 days
[15] = High temperature (60° C., open), 30 days
[16] = Strong light (4500 ± 500 lux-hr, 90 μw-hr/cm^2, sealed), 5 days
[17] = Strong light (4500 ± 500 lux-hr, 90 μw-hr/cm^2, sealed), 10 days

## COCCNS(=O)(=O)Nc1ncnc(OCCOc2ncc(Br)cn2)c1-c1ccc2c(c1)OCO2
[1]; 0 day (initial)
  Appearance: White powder
  Crystal Form: Crystal Form A
  Crystal Form A of the compound of formula (I) (%): 99.2%
  Total impurities (%): 0.26%
[1]; [2]
  Appearance: White powder
  Crystal Form: Crystal Form A
  Crystal Form A of the compound of formula (I) (%): 100.2%
  Total impurities (%): 0.13%
[1]; [3]
  Appearance: White powder
  Crystal Form: Crystal Form A
  Crystal Form A of the compound of formula (I) (%): 100.1%
  Total impurities (%): 0.20%
[1]; [4]
  Appearance: White powder
  Crystal Form A of the compound of formula (I) (%): 100.0%
  Total impurities (%): 0.13%
[1]; [5]
  Appearance: White powder
  Crystal Form A of the compound of formula (I) (%): 100.1%
  Total impurities (%): 0.16%
[1]; [6]
  Appearance: White powder
  Crystal Form A of the compound of formula (I) (%): 99.2%
  Total impurities (%): 0.14%
[1]; [7]
  Appearance: White powder
  Crystal Form A of the compound of formula (I) (%): 99.3%
  Total impurities (%): 0.14%
[1]; [8]
  Appearance: White powder
  Crystal Form: Crystal Form A
  Crystal Form A of the compound of formula (I) (%): 100.6%
  Total impurities (%): 0.13%
[1]; [9]
  Appearance: White powder
  Crystal Form: Crystal Form A
  Crystal Form A of the compound of formula (I) (%): 100.2%
  Total impurities (%): 0.20%
[1]; [10]
  Appearance: White powder
  Crystal Form A of the compound of formula (I) (%): 99.7%
  Total impurities (%): 0.30%
[1]; [11]
  Appearance: White powder
  Crystal Form A of the compound of formula (I) (%): 99.5%
  Total impurities (%): 0.31%
[1]; [12]
  Appearance: White powder
  Crystal Form A of the compound of formula (I) (%): 99.5%
  Total impurities (%): 0.15%
[1]; [13]
  Appearance: White powder
  Crystal Form A of the compound of formula (I) (%): 100.1%
  Total impurities (%): 0.30%
[1]; [14]
  Appearance: White powder
  Crystal Form A of the compound of formula (I) (%): 100.0%
  Total impurities (%): 0.31%
[1]; [15]
  Appearance: White powder
  Crystal Form A of the compound of formula (I) (%): 99.1%
  Total impurities (%): 0.14%
[1]; [16]
  Appearance: White powder
  Crystal Form A of the compound of formula (I) (%): 99.7%
  Total impurities (%): 0.29%
[1]; [17]
  Appearance: White powder
  Crystal Form A of the compound of formula (I) (%): 99.6%
  Total impurities (%): 0.30%
[1]; high temperature, high humidity or strong light condition
  Solid stability (conclusion in words): good stability
Human ETB receptors
  IC50: 32 µM
